Key:
Type in all cases: in vivo
[1] = test system: Johnsongrass (Sorghum halepense, SORHA); assay: Pre-emerge greenhouse herbicide test, phytotoxicity rating; conditions: 14 days after application, rating scale 0-100
Outline: (§1)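 Visual 0–100 injury rating (100 = all plants dead) taken 14 days after treatment. Rates of 125–1000 g ai/ha in acetone, 187 l/ha, were sprayed onto soil one day post-sowing; pots were surface-watered to incorporate, then bottom-watered.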

[2] = test system: barnyardgrass (Echinochloa crusgalli, ECHCG); assay: as above; conditions: 14 days after application, rating scale 0-100
Outline: as §1

[3] = test system: common ragweed (Ambrosia artemisiifolia L., AMBEL); assay: as above; conditions: 14 days after application, rating scale 0-100
Outline: as §1

[4] = test system: green foxtail (Setaria viridis, SETVI); assay: as above; conditions: 14 days after application, rating scale 0-100
Outline: as §1

[5] = test system: ivyleaf morningglory (Ipomoea hederacea, IPOHE); assay: as above; conditions: 14 days after application, rating scale 0-100
Outline: as §1

[6] = test system: lambsquarters (Chenopodium album, CHEAL); assay: as above; conditions: 14 days after application, rating scale 0-100
Outline: as §1

[7] = test system: large crabgrass (Digitaria sanguinalis, DIGSA); assay: as above; conditions: 14 days after application, rating scale 0-100
Outline: as §1

[8] = test system: redroot pigweed (Amaranthus retroflexus, AMARE); assay: as above; conditions: 14 days after application, rating scale 0-100
Outline: as §1

[9] = test system: sicklepod (Cassia obtusifolia, CASOB); assay: as above; conditions: 14 days after application, rating scale 0-100
Outline: as §1

[10] = test system: velvetleaf (Abutilon theophrasti, ABUTH); assay: as above; conditions: 14 days after application, rating scale 0-100
Outline: as §1

[11] = test system: common ragweed (Ambrosia artemisiifolia L., AMBEL); assay: Post-emerge greenhouse herbicide test, phytotoxicity rating; conditions: 14 days after application
Outline: (§2)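 Scores use a 0 (no damage) to 100 (complete kill) scale, taken 14 days after a foliar spray. Acetone solutions with 0.25% v/v non-ionic surfactant were applied by track sprayer at 187 l/ha and 63-1000 g ai/ha to bottom-watered 2-3 leaf plants.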

[12] = test system: Johnsongrass (Sorghum halepense, SORHA); assay: as above; conditions: 14 days after application
Outline: as §2

[13] = test system: barnyardgrass (Echinochloa crusgalli, ECHCG); assay: as above; conditions: 14 days after application
Outline: as §2

[14] = test system: green foxtail (Setaria viridis, SETVI); assay: as above; conditions: 14 days after application
Outline: as §2

[15] = test system: ivyleaf morningglory (Ipomoea hederacea, IPOHE); assay: as above; conditions: 14 days after application
Outline: as §2

[16] = test system: lambsquarters (Chenopodium album, CHEAL); assay: as above; conditions: 14 days after application
Outline: as §2

[17] = test system: large crabgrass (Digitaria sanguinalis, DIGSA); assay: as above; conditions: 14 days after application
Outline: as §2

[18] = test system: redroot pigweed (Amaranthus retroflexus, AMARE); assay: as above; conditions: 14 days after application
Outline: as §2

[19] = test system: sicklepod (Cassia obtusifolia, CASOB); assay: as above; conditions: 14 days after application
Outline: as §2

[20] = test system: velvetleaf (Abutilon theophrasti, ABUTH); assay: as above; conditions: 14 days after application
Outline: as §2

[21] = test system: field corn (Zea mays L., var. Dekalb 535, CORN); assay: Pre-emerge greenhouse test, crop damage rating; conditions: 14 days after application, rating scale 0-100
Outline: as §1

[22] = test system: upland rice (Oryza sp., var.Tebonnet, RICE); assay: Pre-emerge greenhouse test, crop damage rating; conditions: 125 g ai/ha, 14 days after application, rating scale 0-100
Outline: as §1

[23] = test system: soybean (Glycine max L., var. Pella 86, SOY); assay: Pre-emerge greenhouse test, crop damage rating; conditions: 14 days after application, rating scale 0-100
Outline: as §1

[24] = test system: field corn (Zea mays L., var. Dekalb 535, CORN); assay: Post-emerge greenhouse test, crop damage rating; conditions: 14 days after application
Outline: as §2

[25] = test system: soybean (Glycine max L., var. Pella 86, SOY); assay: Post-emerge greenhouse test, crop damage rating; conditions: 14 days after application
Outline: as §2

Structure (SMILES): O=c1sc(=Nc2cc(Oc3ncccc3C(F)(F)F)c(Cl)cc2F)n2n1CCCC2 [Compound 7-1, 9-[4-chloro-2-fluoro-5-(3-trifluoromethyl-2-pyridyloxy)phenylimino]-8-thia-1,6-diazabicyclo[4,3,0]nonane-7-one]
- phytotoxicity rating SORHA ([1]; 125 g ai/ha): 0
- phytotoxicity rating SORHA ([1]; 500 g ai/ha): 60
- phytotoxicity rating ECHCG ([2]; 125 g ai/ha): 0
- phytotoxicity rating ECHCG ([2]; 500 g ai/ha): 0
- phytotoxicity rating AMBEL ([3]; 125 g ai/ha): 80
- phytotoxicity rating AMBEL ([3]; 500 g ai/ha): 90
- phytotoxicity rating SETVI ([4]; 125 g ai/ha): 90
- phytotoxicity rating SETVI ([4]; 500 g ai/ha): 100
- phytotoxicity rating IPOHE ([5]; 125 g ai/ha): 0
- phytotoxicity rating IPOHE ([5]; 500 g ai/ha): 0
- phytotoxicity rating CHEAL ([6]; 125 g ai/ha): 100
- phytotoxicity rating CHEAL ([6]; 500 g ai/ha): 100
- phytotoxicity rating DIGSA ([7]; 125 g ai/ha): 60
- phytotoxicity rating DIGSA ([7]; 500 g ai/ha): 90
- phytotoxicity rating AMARE ([8]; 125 g ai/ha): 100
- phytotoxicity rating AMARE ([8]; 500 g ai/ha): 100
- phytotoxicity rating CASOB ([9]; 125 g ai/ha): 50
- phytotoxicity rating CASOB ([9]; 500 g ai/ha): 10
- phytotoxicity rating ABUTH ([10]; 125 g ai/ha): 90
- phytotoxicity rating ABUTH ([10]; 500 g ai/ha): 100
- AMBEL phytotoxicity rating (0-100) ([11]; 63 g al/ha): 95
- AMBEL phytotoxicity rating (0-100) ([11]; 500 g al/ha): 100
- SORHA phytotoxicity rating (0-100) ([12]; 500 g al/ha): 30
- ECHCG phytotoxicity rating (0-100) ([13]; 63 g al/ha): 0
- ECHCG phytotoxicity rating (0-100) ([13]; 500 g al/ha): 20
- SETVI phytotoxicity rating (0-100) ([14]; 63 g al/ha): 20
- SETVI phytotoxicity rating (0-100) ([14]; 500 g al/ha): 60
- IPOHE phytotoxicity rating (0-100) ([15]; 63 g al/ha): 100
- IPOHE phytotoxicity rating (0-100) ([15]; 500 g al/ha): 100
- CHEAL phytotoxicity rating (0-100) ([16]; 63 g al/ha): 100
- CHEAL phytotoxicity rating (0-100) ([16]; 500 g al/ha): 100
- DIGSA phytotoxicity rating (0-100) ([17]; 63 g al/ha): 30
- DIGSA phytotoxicity rating (0-100) ([17]; 500 g al/ha): 60
- AMARE phytotoxicity rating (0-100) ([18]; 63 g al/ha): 100
- AMARE phytotoxicity rating (0-100) ([18]; 500 g al/ha): 100
- CASOB phytotoxicity rating (0-100) ([19]; 63 g al/ha): 70
- CASOB phytotoxicity rating (0-100) ([19]; 500 g al/ha): 20
- ABUTH phytotoxicity rating (0-100) ([20]; 63 g al/ha): 90
- ABUTH phytotoxicity rating (0-100) ([20]; 500 g al/ha): 100

Structure (SMILES): Cn1nc(-c2cc(Oc3nc(F)c(F)cc3F)c(Cl)cc2F)c(Cl)c1C(F)(F)F [Compound 1-6]
- phytotoxicity rating SORHA ([1]; 125 g ai/ha): 0
- phytotoxicity rating SORHA ([1]; 500 g ai/ha): 90
- phytotoxicity rating ECHCG ([2]; 125 g ai/ha): 30
- phytotoxicity rating ECHCG ([2]; 500 g ai/ha): 70
- phytotoxicity rating AMBEL ([3]; 125 g ai/ha): 100
- phytotoxicity rating AMBEL ([3]; 500 g ai/ha): 99
- phytotoxicity rating SETVI ([4]; 125 g ai/ha): 60
- phytotoxicity rating SETVI ([4]; 500 g ai/ha): 30
- phytotoxicity rating IPOHE ([5]; 125 g ai/ha): 30
- phytotoxicity rating IPOHE ([5]; 500 g ai/ha): 99
- phytotoxicity rating CHEAL ([6]; 125 g ai/ha): 40
- phytotoxicity rating CHEAL ([6]; 500 g ai/ha): 100
- phytotoxicity rating DIGSA ([7]; 125 g ai/ha): 20
- phytotoxicity rating DIGSA ([7]; 500 g ai/ha): 10
- phytotoxicity rating AMARE ([8]; 125 g ai/ha): 95
- phytotoxicity rating AMARE ([8]; 500 g ai/ha): 99
- phytotoxicity rating CASOB ([9]; 125 g ai/ha): 0
- phytotoxicity rating CASOB ([9]; 500 g ai/ha): 0
- phytotoxicity rating ABUTH ([10]; 125 g ai/ha): 50
- phytotoxicity rating ABUTH ([10]; 500 g ai/ha): 80
- crop damage rating CORN ([21]; 125 g ai/ha): 0
- crop damage rating CORN ([21]; 500 g ai/ha): 0
- crop damage rating RICE [22]: 0
- crop damage rating SOY ([23]; 125 g ai/ha): 0
- crop damage rating SOY ([23]; 500 g ai/ha): 0
- AMBEL phytotoxicity rating (0-100) ([11]; 63 g al/ha): 0
- AMBEL phytotoxicity rating (0-100) ([11]; 500 g al/ha): 90
- SORHA phytotoxicity rating (0-100) ([12]; 63 g al/ha): 30
- SORHA phytotoxicity rating (0-100) ([12]; 500 g al/ha): 70
- ECHCG phytotoxicity rating (0-100) ([13]; 63 g al/ha): 20
- ECHCG phytotoxicity rating (0-100) ([13]; 500 g al/ha): 70
- SETVI phytotoxicity rating (0-100) ([14]; 63 g al/ha): 20
- SETVI phytotoxicity rating (0-100) ([14]; 500 g al/ha): 60
- IPOHE phytotoxicity rating (0-100) ([15]; 63 g al/ha): 50
- IPOHE phytotoxicity rating (0-100) ([15]; 500 g al/ha): 100
- CHEAL phytotoxicity rating (0-100) ([16]; 63 g al/ha): 30
- CHEAL phytotoxicity rating (0-100) ([16]; 500 g al/ha): 100
- DIGSA phytotoxicity rating (0-100) ([17]; 63 g al/ha): 0
- AMARE phytotoxicity rating (0-100) ([18]; 63 g al/ha): 99
- AMARE phytotoxicity rating (0-100) ([18]; 500 g al/ha): 100
- ABUTH phytotoxicity rating (0-100) ([20]; 63 g al/ha): 50
- ABUTH phytotoxicity rating (0-100) ([20]; 500 g al/ha): 100
- CORN crop damage rating (0-100) ([24]; 63 g al/ha): 10
- CORN crop damage rating (0-100) ([24]; 500 g al/ha): 10
- SOY crop damage rating (0-100) ([25]; 63 g al/ha): 30
- SOY crop damage rating (0-100) ([25]; 500 g al/ha): 50

Reference: patent US6479435B1, “Diaryl ethers and processes for their preparation and herbicidal and desiccant compositions containing them” (ISK Americas Incorporated, priority 1997, dated 2002)
